Values quoted from earlier work as cited in patent publication US20250345332A1, “APROCITENTAN FOR THE TREATMENT OF HYPERTENSION” (IDORSIA PHARMACEUTICALS LTD, priority 2022, published 2025).

Columns and labels:
[1] = tested on: patients with type 2 diabetes and overt diabetic nephropathy; conditions: in vivo; cited from earlier work
[2] = tested on: subjects having essential hypertension; conditions: lisinopril 20 mg, cited from earlier work
[3] = tested on: subjects having essential hypertension; conditions: after 8 weeks once daily, at trough, aprocitentan 5, 10, 25, 50 mg groups, lisinopril 20 mg, cited from earlier work
[4] = tested on: patients with rHT; conditions: cited from earlier work

For `COc1ccccc1Oc1c(NS(=O)(=O)c2ccc(C)cn2)nc(-c2ccncc2)nc1OC` [Avosentan, avosentan], the “albumin-to-creatinine ratio (ACR)” value [1] is listed as “significantly reduced”.

In the case of `NCCCC[C@H](N[C@@H](CCc1ccccc1)C(=O)O)C(=O)N1CCC[C@H]1C(=O)O` [lisinopril, reference compound], the “discontinuation from study treatment due to an adverse event” value ([2]; aprocitentan 5-50 mg groups) is given as 3.7%, the “mean body weight decrease from baseline” value [2] is given as 0.3 kg and the “mean reduction from baseline in diastolic blood pressure” value ([3]; per-protocol population) is given as 8.4 mmHg. For the same molecule, the “systolic blood pressure reductions” value [3] was 12.8 mmHg.

For `COc1cc(OC)nc(O[C@H](C(=O)O)C(OC)(c2ccccc2)c2ccccc2)n1` [darusentan], the “reduction of ambulatory blood pressure” value ([4]; 14 weeks) is given as “demonstrated efficacy”, the “treatment effect on the primary endpoint systolic blood pressure” value ([4]; 14 weeks) is given as “failed to show significant treatment effect” and the “fluid retention/edema (most frequent adverse event)” value ([4]; versus 12% in each of the other groups) is given as 28%.
